Experimental data: US20250382344A1, “Soluble GLP1/GIP/NPY2 Receptor Triple Agonists” (Boehringer Ingelheim International GmH, priority 2024, published 2025)

Assay: Solubility in 0.1 M phosphate buffer at pH 7
Type: physicochemical
Conditions: 0.1 M phosphate buffer at pH 7, 10 mg/mL final peptide concentration, shaking 2 hours at room temperature, peptides as TFA-salts, measured sample pH 6.5-7.0; for solubility: read-out: Solubility
Experimental: Peptides (as TFA-salts) were weighed out in a filter unit (Mini-UniPrep Syringeless Filter 0.45 μm, Whatman PVDF), and 0.1 M phosphate buffer at pH 7 was added to achieve 10 mg/mL final peptide concentration. The peptides were dissolved by shaking the filter units horizontally at 600 rpm for 2 hours at room temperature. Samples were then filtered to remove any insoluble particles. Controls were prepared by weighing out the corresponding peptide solid material and dissolving it in an appropriate vehicle (e.g. ACN:H2O) to a final concentration of 1 mg/mL. Both, the control and sample were analyzed by reversed phase chromatography. The area under the peak of the sample was compared to the control and the solubility was calculated based on that ratio. The pH was measured and recorded for each sample.

Compound | solubility [µg/mL] | solubility at 2 h [µg/mL]
CC[C@H](C)[C@H](NC(=O)[C@H](CC(C)C)NC(=O)[C@H](Cc1c[nH]cn1)NC(=O)[C@H](CCCNC(=N)N)NC(=O)[C@@H](NC(=O)[C@H](Cc1ccccc1)NC(=O)[C@H](C)NC(=O)C(C)(C)NC(=O)[C@H](CCC(N)=O)NC(=O)[C@H](C)NC(=O)[C@H](CCC(N)=O)NC(=O)[C@H](CCC(=O)O)NC(=O)[C@H](CC(=O)O)NC(=O)[C@H](CC(C)C)NC(=O)C(C)(C)NC(=O)[C@@H](NC(=O)[C@H](CO)NC(=O)[C@H](Cc1ccc(O)cc1)NC(=O)[C@H](CC(=O)O)NC(=O)[C@H](CO)NC(=O)[C@@H](NC(=O)[C@H](Cc1ccccc1)NC(=O)[C@@H](NC(=O)CNC(=O)[C@H](CCC(=O)O)NC(=O)C(C)(C)NC(=O)[C@@H](N)Cc1ccc(O)cc1)[C@@H](C)O)[C@@H](C)O)[C@@H](C)CC)C(C)C)C(=O)N[C@@H](CC(N)=O)C(=O)N[C@@H](CCCCNC(=O)[C@@H](N)CCCCNC(=O)CC[C@H](NC(=O)[C@H](CCC(=O)O)NC(=O)CC[C@H](NC(=O)CC[C@H](NC(=O)CC[C@H](NC(=O)CC[C@H](NC(=O)CCCCCCCCCCCCCCCCC(=O)O)C(=O)O)C(=O)O)C(=O)O)C(=O)O)C(=O)O)C(=O)NC(C)(C)C(=O)N[C@H](C(=O)N[C@@H](CCCNC(=N)N)C(=O)N[C@@H](CCC(N)=O)C(=O)N[C@@H](CCCNC(=N)N)C(=O)N[C@@H](Cc1ccc(O)cc1)C(N)=O)[C@@H](C)O [Compound 40, Y-Aib-E-G-T-F-T-S-D-Y-S-I-Aib-L-D-E-Q-A-Q-Aib-A-F-V-R-H-L-I-N-K(1,3)-Aib-T-R-Q-R-Y-NH2.C18DA-gGlu-gGlu-gGlu-gGlu-gGlu-gGlu-eLys(1,2)] | 9500 | 
CC[C@H](C)[C@H](NC(=O)[C@H](CC(C)C)NC(=O)[C@H](Cc1c[nH]cn1)NC(=O)[C@H](CCCNC(=N)N)NC(=O)[C@@H](NC(=O)[C@H](Cc1ccccc1)NC(=O)[C@H](CCC(=O)O)NC(=O)C(C)(C)NC(=O)[C@H](CCC(N)=O)NC(=O)[C@H](C)NC(=O)[C@H](CCC(N)=O)NC(=O)[C@H](CCCCN)NC(=O)[C@H](CCC(=O)O)NC(=O)[C@H](CC(C)C)NC(=O)C(C)(C)NC(=O)[C@@H](NC(=O)[C@H](CO)NC(=O)[C@H](Cc1ccc(O)cc1)NC(=O)[C@H](CC(=O)O)NC(=O)[C@H](CO)NC(=O)[C@@H](NC(=O)[C@H](Cc1ccccc1)NC(=O)[C@@H](NC(=O)CNC(=O)[C@H](CCC(=O)O)NC(=O)C(C)(C)NC(=O)[C@@H](N)Cc1ccc(O)cc1)[C@@H](C)O)[C@@H](C)O)[C@@H](C)CC)C(C)C)C(=O)N[C@@H](CC(N)=O)C(=O)N[C@@H](CCCCNC(=O)CCCCCNC(=O)CC[C@H](NC(=O)[C@H](CCC(=O)O)NC(=O)CC[C@H](NC(=O)CC[C@H](NC(=O)CC[C@H](NC(=O)CCCCCCCCCCCCCCCCC(=O)O)C(=O)O)C(=O)O)C(=O)O)C(=O)O)C(=O)N[C@@H](CC(C)C)C(=O)N[C@H](C(=O)N[C@@H](CCCNC(=N)N)C(=O)N[C@@H](CCC(N)=O)C(=O)N[C@@H](CCCNC(=N)N)C(=O)N[C@@H](Cc1ccc(O)cc1)C(N)=O)[C@@H](C)O [Compound 45, Y-Aib-E-G-T-F-T-S-D-Y-S-I-Aib-L-E-K-Q-A-Q-Aib-E-F-V-R-H-L-I-N-K(1,3)-L-T-R-Q-R-Y-NH2.C18DA-gGlu-gGlu-gGlu-gGlu-gGlu-AHX(1,2)] | 5000 | 
CC[C@H](C)[C@H](NC(=O)[C@H](CC(C)C)NC(=O)[C@H](Cc1c[nH]cn1)NC(=O)[C@H](CCCNC(=N)N)NC(=O)[C@@H](NC(=O)[C@H](Cc1ccccc1)NC(=O)[C@H](C)NC(=O)C(C)(C)NC(=O)[C@H](CCC(N)=O)NC(=O)[C@H](C)NC(=O)[C@H](CCC(N)=O)NC(=O)[C@H](CCCCN)NC(=O)[C@H](CCC(=O)O)NC(=O)[C@H](CC(C)C)NC(=O)C(C)(C)NC(=O)[C@@H](NC(=O)[C@H](CO)NC(=O)[C@H](Cc1ccc(O)cc1)NC(=O)[C@H](CC(=O)O)NC(=O)[C@H](CO)NC(=O)[C@@H](NC(=O)[C@H](Cc1ccccc1)NC(=O)[C@@H](NC(=O)CNC(=O)[C@H](CCC(=O)O)NC(=O)C(C)(C)NC(=O)[C@@H](N)Cc1ccc(O)cc1)[C@@H](C)O)[C@@H](C)O)[C@@H](C)CC)C(C)C)C(=O)N[C@@H](CC(N)=O)C(=O)N[C@@H](CCCCNC(=O)CC[C@H](NC(=O)CC[C@H](NC(=O)[C@@H](N)CCCCNC(=O)CC[C@H](NC(=O)CC[C@H](NC(=O)CC[C@H](NC(=O)CC[C@H](NC(=O)CCCCCCCCCCCCCCCCCCC(=O)O)C(=O)O)C(=O)O)C(=O)O)C(=O)O)C(=O)O)C(=O)O)C(=O)NC(C)(C)C(=O)N[C@H](C(=O)N[C@@H](CCCNC(=N)N)C(=O)N[C@@H](CCC(N)=O)C(=O)N[C@@H](CCCNC(=N)N)C(=O)N[C@@H](Cc1ccc(O)cc1)C(N)=O)[C@@H](C)O [Compound 52, Y-Aib-E-G-T-F-T-S-D-Y-S-I-Aib-L-E-K-Q-A-Q-Aib-A-F-V-R-H-L-I-N-K(1,3)-Aib-T-R-Q-R-Y-NH2.C20DA-gGlu-gGlu-gGlu-gGlu-eLys-gGlu-gGlu(1,2)] | 9400 | 
CC[C@H](C)[C@H](NC(=O)[C@H](CC(C)C)NC(=O)[C@H](Cc1c[nH]cn1)NC(=O)[C@H](CCCNC(=N)N)NC(=O)[C@@H](NC(=O)[C@H](Cc1ccccc1)NC(=O)[C@H](C)NC(=O)C(C)(C)NC(=O)[C@H](CCC(=O)O)NC(=O)[C@H](C)NC(=O)[C@H](CCC(N)=O)NC(=O)[C@H](CCCCN)NC(=O)[C@H](CCC(=O)O)NC(=O)[C@H](CC(C)C)NC(=O)C(C)(C)NC(=O)[C@@H](NC(=O)[C@H](CO)NC(=O)[C@H](Cc1ccc(O)cc1)NC(=O)[C@H](CC(=O)O)NC(=O)[C@H](CO)NC(=O)[C@@H](NC(=O)[C@H](Cc1ccccc1)NC(=O)[C@@H](NC(=O)CNC(=O)[C@H](CCC(=O)O)NC(=O)C(C)(C)NC(=O)[C@@H](N)Cc1ccc(O)cc1)[C@@H](C)O)[C@@H](C)O)[C@@H](C)CC)C(C)C)C(=O)N[C@@H](CC(N)=O)C(=O)N[C@@H](CCCCNC(=O)[C@@H](N)CCCCNC(=O)[C@@H](N)CCCCNC(=O)CC[C@H](NC(=O)CC[C@H](NC(=O)CC[C@H](NC(=O)CC[C@H](NC(=O)CC[C@H](NC(=O)CC[C@H](NC(=O)CCCCCCCCCCCCCCCCCCC(=O)O)C(=O)O)C(=O)O)C(=O)O)C(=O)O)C(=O)O)C(=O)O)C(=O)NC(C)(C)C(=O)N[C@H](C(=O)N[C@@H](CCCNC(=N)N)C(=O)N[C@@H](CCC(N)=O)C(=O)N[C@@H](CCCNC(=N)N)C(=O)N[C@@H](Cc1ccc(O)cc1)C(N)=O)[C@@H](C)O [Compound 82, Y-Aib-E-G-T-F-T-S-D-Y-S-I-Aib-L-E-K-Q-A-E-Aib-A-F-V-R-H-L-I-N-K(1,3)-Aib-T-R-Q-R-Y-NH2.C20DA-gGlu-gGlu-gGlu-gGlu-gGlu-gGlu-eLys-eLys(1,2)] |  | 9000
CC[C@H](C)[C@H](NC(=O)[C@H](CC(C)C)NC(=O)[C@H](Cc1c[nH]cn1)NC(=O)[C@H](CCCNC(=N)N)NC(=O)[C@@H](NC(=O)[C@H](Cc1ccccc1)NC(=O)[C@H](C)NC(=O)C(C)(C)NC(=O)[C@H](CCC(N)=O)NC(=O)[C@H](C)NC(=O)[C@H](CCC(N)=O)NC(=O)[C@H](CCCCN)NC(=O)[C@H](CCC(=O)O)NC(=O)[C@H](CC(C)C)NC(=O)C(C)(C)NC(=O)[C@@H](NC(=O)[C@H](CO)NC(=O)[C@H](Cc1ccc(O)cc1)NC(=O)[C@H](CC(=O)O)NC(=O)[C@H](CO)NC(=O)[C@@H](NC(=O)[C@H](Cc1ccccc1)NC(=O)[C@@H](NC(=O)[C@H](C)NC(=O)[C@H](CCC(=O)O)NC(=O)C(C)(C)NC(=O)[C@@H](N)Cc1ccc(O)cc1)[C@@H](C)O)[C@@H](C)O)[C@@H](C)CC)C(C)C)C(=O)N[C@@H](CC(N)=O)C(=O)N[C@@H](CCCCNC(=O)[C@@H](N)CCCCNC(=O)CC[C@H](NC(=O)CC[C@H](NC(=O)CC[C@H](NC(=O)CC[C@H](NC(=O)CC[C@H](NC(=O)CC[C@H](NC(=O)CCCCCCCCCCCCCCCCC(=O)O)C(=O)O)C(=O)O)C(=O)O)C(=O)O)C(=O)O)C(=O)O)C(=O)NC(C)(C)C(=O)N[C@H](C(=O)N[C@@H](CCCNC(=N)N)C(=O)N[C@@H](CCC(N)=O)C(=O)N[C@@H](CCCNC(=N)N)C(=O)N[C@@H](Cc1ccc(O)cc1)C(N)=O)[C@@H](C)O [Compound 93, Y-Aib-E-A-T-F-T-S-D-Y-S-I-Aib-L-E-K-Q-A-Q-Aib-A-F-V-R-H-L-I-N-K(1,3)-Aib-T-R-Q-R-Y-NH2.C18DA-gGlu-gGlu-gGlu-gGlu-gGlu-gGlu-eLys(1,2)] |  | 10000
CC[C@H](C)[C@H](NC(=O)[C@H](CC(C)C)NC(=O)[C@H](Cc1c[nH]cn1)NC(=O)[C@H](CCCNC(=N)N)NC(=O)[C@@H](NC(=O)[C@H](Cc1ccccc1)NC(=O)[C@H](C)NC(=O)C(C)(C)NC(=O)[C@H](CCC(N)=O)NC(=O)[C@H](C)NC(=O)[C@H](CCC(N)=O)NC(=O)CNC(=O)[C@H](CCC(=O)O)NC(=O)[C@H](CC(C)C)NC(=O)C(C)(C)NC(=O)[C@@H](NC(=O)[C@H](CO)NC(=O)[C@H](Cc1ccc(O)cc1)NC(=O)[C@H](CC(=O)O)NC(=O)[C@H](CO)NC(=O)[C@@H](NC(=O)[C@H](Cc1ccccc1)NC(=O)[C@@H](NC(=O)CNC(=O)[C@H](CCC(=O)O)NC(=O)C(C)(C)NC(=O)[C@@H](N)Cc1ccc(O)cc1)[C@@H](C)O)[C@@H](C)O)[C@@H](C)CC)C(C)C)C(=O)N[C@@H](CC(N)=O)C(=O)N[C@@H](CCCCNC(=O)[C@@H](N)CCCCNC(=O)CC[C@H](NC(=O)CC[C@H](NC(=O)CC[C@H](NC(=O)CC[C@H](NC(=O)CC[C@H](NC(=O)CC[C@H](NC(=O)CCCCCCCCCCCCCCCCC(=O)O)C(=O)O)C(=O)O)C(=O)O)C(=O)O)C(=O)O)C(=O)O)C(=O)NC(C)(C)C(=O)N[C@H](C(=O)N[C@@H](CCCNC(=N)N)C(=O)N[C@@H](CCC(N)=O)C(=O)N[C@@H](CCCNC(=N)N)C(=O)N[C@@H](Cc1ccc(O)cc1)C(N)=O)[C@@H](C)O [Compound 95, Y-Aib-E-G-T-F-T-S-D-Y-S-I-Aib-L-E-G-Q-A-Q-Aib-A-F-V-R-H-L-I-N-K(1,3)-Aib-T-R-Q-R-Y-NH2.C18DA-gGlu-gGlu-gGlu-gGlu-gGlu-gGlu-eLys(1,2)] |  | 4400
